Data taken from PubChem BioAssay AID463206 (Broad Institute, 2010).
Active and inactive are the calls of the source.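 Rule for the calls: active = caspase luminescence falls with dose and the half-maximal concentration AC50 from the fitted curve is at or below a set limit; inconclusive = flat fit at 30 to 70% signal loss, or invalid fit; inactive = AC50 above the limit, or signal rises instead.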

The molecules below were run on INS-1E cytokine-induced caspase-3/7, Caspase-Glo luminescence, 48 h (assay: inhibitors of cytokine-induced caspase-3/7 activity, dose response, orthogonal assay for beta-cell apoptosis protection project, INS-1E rat cells, luminescence (AID 463206)).
For `CC(=O)SC1CC(=O)N(c2c(C)cccc2C)C1=O` (stereo not drawn), the AC50 was > 26 µM (inactive).
In the case of `CCOc1ccc(S(=O)(=O)N(C)c2ccc(OCC(=O)Nc3nc4ccccc4s3)cc2)cc1`, the AC50 was > 26 µM (inactive).
For `O=C1c2ccccc2C2=Nc3ccccc3SC(c3ccc(Cl)cc3)C12` (stereo not drawn), the AC50 was > 26 µM (inactive).
With `C=C1CCc2c([nH]c3ccc(OCC(C)C)cc23)C1=O` the AC50 was > 26 µM (inactive).
With `Cc1ccc(-c2c(C#N)c(N)n3c(nc4ccccc43)c2C#N)cc1` the AC50 was > 26 µM (inactive).
`COc1ccc(NC(=O)N(C)C[C@H]2Oc3c(NS(=O)(=O)c4ccc(F)cc4)cccc3C(=O)N([C@H](C)CO)C[C@@H]2C)cc1` was tested, and the AC50 was > 26 µM (inactive).
In the case of `CCCCC(=O)NC(c1ccccc1Cl)c1ccc2cccnc2c1O` (stereo not drawn), the AC50 was > 26 µM (inactive).
For `CCC(CC)C(=O)c1c[nH]c(C(=O)NCc2ccccn2)c1`, the AC50 was > 26 µM (inactive).
For `CSc1nc(N)nc2c1ncn2CC(=O)N1CCN(Cc2c(C)cc(C)cc2C)CC1`, the AC50 was > 26 µM (inactive).
With `C=C1C(=O)O[C@@H]2C[C@@H](C)[C@@H]3C=CC(=O)[C@@]3(C)[C@@H](O)[C@H]12` the AC50 was > 26 µM (inactive).
`CC1CC(C)CN(S(=O)(=O)c2ccc(C(=O)NCCCn3ccnc3)cc2)C1` (stereo not drawn) was tested, and the AC50 was > 26 µM (inactive).
With `O=C(Nc1cccc(NC(=O)c2ccccc2Cl)c1)c1ccc([N+](=O)[O-])o1` the AC50 was > 26 µM (inactive).
In the case of `COc1ccccc1/C=C1\SC(=O)N(CCC(=O)NCCCn2ccnc2)C1=O`, the AC50 was > 26 µM (inactive).
In the case of `CC(CC(=O)N1CCN(c2cccc(Cl)c2)CC1)S(=O)(=O)c1ccc2c(c1)NC(=O)CO2` (stereo not drawn), the AC50 was > 26 µM (inactive).
With `O=C(NCCCn1ccnc1)c1ccc(N2CCCCCC2)c([N+](=O)[O-])c1` the AC50 was > 26 µM (inactive).
In the case of `O=c1c2ccccc2nc(N/N=C/c2c(O)ccc3ccccc23)n1O`, the AC50 was > 26 µM (inactive).
For `O=C(Nc1cc(Sc2ccccn2)cc([N+](=O)[O-])c1)c1cccc(F)c1`, the AC50 was > 26 µM (inactive).
For `CCCCCCCCCCCCCCCC[n+]1cccc(C(=O)N(CC)CC)c1`, the AC50 was > 26 µM (inactive).
With `O=c1cc(N2CCN(c3cccc(Cl)c3)CC2)[nH]c(=O)n1C1CCCCC1` the AC50 was > 26 µM (inactive).
With `CN(C)c1ccc(NC(=S)NC23CC4CC(CC(C4)C2)C3)cc1` the AC50 was > 26 µM (inactive).
With `CCC1CCCCN1C(=O)c1cc(COc2ccc(-n3cncn3)cc2)on1` (stereo not drawn) the AC50 was > 26 µM (inactive).
For `O=C(Oc1cccc2cccnc12)c1cccc(N2C(=O)C3C4CCC(C4)C3C2=O)c1` (stereo not drawn), the AC50 was > 26 µM (inactive).
`COc1ccc(C(=O)N(C)c2ccccc2C(=O)NCCc2ccccc2)cc1` was tested, and the AC50 was > 26 µM (inactive).
`c1ccc(-c2nc(N3CCCCCC3)c3ccccc3n2)nc1` was tested, and the AC50 was > 26 µM (inactive).
In the case of `COC(=O)[C@H](CC(C)C)N(Cc1ccccc1)S(=O)(=O)N(Cc1ccccc1)[C@@H](CC(C)C)C(=O)OC`, the AC50 was > 26 µM (inactive).
With `O=[N+]([O-])c1cc(/C=N/Nc2nc3ccccc3[nH]2)c(O)cc1O` the AC50 was > 26 µM (inactive).
With `Cc1cc2nc(-c3ccc(NC(=O)c4cccnc4)cc3)oc2cc1C` the AC50 was > 26 µM (inactive).
For `Oc1ccc(CN2CCc3ccccc3C2)c2cccnc12`, the AC50 was > 26 µM (inactive).
`COc1ccc(C(=O)NC(=S)NNC(=O)c2cnccn2)cc1` was tested, and the AC50 was > 26 µM (inactive).
For `Cc1ccc(C(C)C)c(OCC(O)CN2CCc3ccccc3C2)c1` (stereo not drawn), the AC50 was > 12 µM (inactive).
With `COc1cccc(/C=N\NC(=O)c2ccc(Cn3cc(Br)c([N+](=O)[O-])n3)o2)c1O` the AC50 was > 26 µM (inactive).
With `Cc1ccc(S(=O)(=O)NCc2ccncc2)c(C)c1C` the AC50 was > 26 µM (inactive).
With `Cn1nccc1C(=O)NC1CCCc2c1cnn2-c1ccc(F)cc1F` (stereo not drawn) the AC50 was > 26 µM (inactive).
For `COc1cc(/C=C2\CC(C(C)(C)C)C/C(=C\c3cc(OC)c(OC)c(OC)c3)C2=O)cc(OC)c1OC` (stereo not drawn), the AC50 was > 26 µM (inactive).
In the case of `CCn1c(-c2ccc(N(C)C)cc2)nc2ccccc21`, the AC50 was > 26 µM (inactive).
For `Cc1ncc(CO)c(/C=N/Nc2ccc(C(F)(F)F)cn2)c1O`, the AC50 was > 26 µM (inactive).
For `CS(=O)(=O)c1ncc(Cl)c(C(=O)Nc2ccc(OC(F)F)cc2)n1`, the AC50 was > 26 µM (inactive).
In the case of `O=C(CNC(=O)c1ccc2c(c1)OCO2)N/N=C/c1cc(Br)ccc1O`, the AC50 was > 26 µM (inactive).
With `Cc1ccc(NC(=O)C(C)Sc2nnc(C)n2C2CC2)cc1S(=O)(=O)N1CCOCC1` (stereo not drawn) the AC50 was > 26 µM (inactive).
For `C/C(=N\NC(=O)c1ccccc1Cl)c1ccccn1`, the AC50 was > 26 µM (inactive).
For `COC(=O)C1CCCCN1C(=O)c1cc(COc2cccc3cnccc23)on1` (stereo not drawn), the AC50 was > 26 µM (inactive).
In the case of `CCOC(=O)C(=Cc1ccc(Br)cc1)C(=O)OCC`, the AC50 was > 26 µM (inactive).
`COc1cccc(Cn2c(NCc3ccco3)nc3c2c(=O)n(C)c(=O)n3C)c1` was tested, and the AC50 was > 26 µM (inactive).
`Cc1ccccc1-[n+]1c(-c2ccccc2)cc(-c2ccccc2)cc1-c1ccccc1` was tested, and the AC50 was > 26 µM (inactive).
`O=S(=O)(c1ccc(F)c(F)c1F)N1CCN(c2ncnc3sccc23)CC1` was tested, and the AC50 was > 26 µM (inactive).
For `CCCCCn1c(=O)c(C(=O)NC(C)c2ccccc2)c(O)c2ccccc21` (stereo not drawn), the AC50 was > 26 µM (inactive).
With `c1nc(NCc2ccc3c(c2)OCO3)c2cc(-c3ccc4c(c3)OCCO4)ccc2n1` the AC50 was > 26 µM (inactive).
`CCc1ccc(-n2cc(-c3ccc(F)cc3)[n+]3c2SCCC3)cc1` was tested, and the AC50 was > 26 µM (inactive).
`COc1cccc(N=Nc2ccc3cccnc3c2O)c1` was tested, and the AC50 was > 26 µM (inactive).
With `Clc1ccc2c(N/N=C/c3cccc(Br)c3)ccnc2c1` the AC50 was > 26 µM (inactive).
In the case of `C=CCc1c(C)nc(C)nc1N/N=C/c1ccc(N(C)C)cc1`, the AC50 was > 26 µM (inactive).
`Cc1onc(-c2ccccc2)c1C(=O)NC(=S)NNC(=O)c1ccc(O)cc1O` was tested, and the AC50 was > 26 µM (inactive).
For `O=C(Nc1cccnc1)C1(F)C(F)(F)C(F)(F)C(F)(F)C(F)(F)C1(F)F`, the AC50 was > 26 µM (inactive).
`CCc1ccc2[nH]c3nc(N/N=C/c4ccc(O)cc4O)nnc3c2c1` was tested, and the AC50 was > 12 µM (inactive).
With `Clc1ccc(SCc2cc(N3CCOCC3)nc(-c3ccccn3)n2)cc1` the AC50 was > 26 µM (inactive).
In the case of `CCCCCCSc1cc(-c2nc3ccc(C)cn3c2NCCCC)ccc1OC`, the AC50 was > 26 µM (inactive).
In the case of `O=[N+]([O-])c1ccc(O)c(/C=N/NC(=S)Nc2ccc(Cl)cc2Cl)c1`, the AC50 was > 26 µM (inactive).
For `CCCCC(=O)NC(c1ccccc1)c1ccc2cccnc2c1O` (stereo not drawn), the AC50 was > 26 µM (inactive).
With `COc1cc(CNCCO)cc(Cl)c1OCc1ccc(Cl)cc1Cl` the AC50 was > 26 µM (inactive).
In the case of `O=C(c1ccco1)c1coc2c1cc(O)c1ccccc12`, the AC50 was > 26 µM (inactive).
With `C=CCSc1nsc(NC(=O)Nc2ccc(F)cc2)n1` the AC50 was > 26 µM (inactive).
For `NC(=O)c1ccccc1OC1CCC1`, the AC50 was > 26 µM (inactive).
`Cc1occc1C(=O)N/N=C/c1ccc2c(c1)OCO2` was tested, and the AC50 was > 26 µM (inactive).
For `CCOc1ccc(C(=O)N/N=C(\c2ccccc2)c2ccccn2)cc1`, the AC50 was > 26 µM (inactive).
For `O=[N+]([O-])c1ccc(-n2cnc3ccccc32)c([N+](=O)[O-])c1`, the AC50 was > 12 µM (inactive).
For `O=c1[nH]c(=O)n(Cc2ccco2)c2c1C(C(F)(F)F)(C(F)(F)F)N=C(c1ccc(F)cc1)N2`, the AC50 was > 26 µM (inactive).
For `Cc1cc(C)c2c(C)[nH]nc2n1`, the AC50 was > 26 µM (inactive).
`O=C(C[C@@H]1C/C=C/CC[C@H](Cc2ccc(F)cc2)C(=O)OC[C@@H](Cc2ccccc2)NC1=O)N[C@H](CO)Cc1ccccc1` was tested, and the AC50 was > 26 µM (inactive).
